Test results: PubChem BioAssay AID276 (DTP/NCI, 2004)
“And” between values parts separate entries of the source, which are not always exact repeats. Equal entries are not always repeated. Toxic doses and inconclusive results are not listed. How the source made its calls: active means survival T/C of 150% or more; inactive means T/C below 125% in these data.

Tested on: B6C3F1 mice, Lewis lung carcinoma iv, survival T/C
Experiment: NCI In Vivo Anticancer Drug Screen. Data for tumor model Lewis Lung Carcinoma (intravenous) in B6C3F1 mice
Settings: endpoint: median survival time, higher = longer survival
Summary of the method: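 Tumors were transplanted into mice, which were then dosed with compound or vehicle. Survival was recorded in each group, and the treated figure was divided by the control figure.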

[1] = dose: 25.0 mg/kg/injection, schedule: Q01DX009 (ip), vehicle: saline with Tween-80
[2] = dose: 50.0 mg/kg/injection, schedule: Q01DX009 (ip), vehicle: saline with Tween-80
[3] = dose: 100.0 mg/kg/injection, schedule: Q01DX009 (ip), vehicle: saline with Tween-80
[4] = dose: 200.0 mg/kg/injection, schedule: Q01DX009 (ip), vehicle: saline with Tween-80
[5] = dose: 6.25 mg/kg/injection, schedule: Q01DX009 (ip), vehicle: saline with Tween-80
[6] = dose: 12.5 mg/kg/injection, schedule: Q01DX009 (ip), vehicle: saline with Tween-80
[7] = dose: 0.39 mg/kg/injection, schedule: Q01DX009 (ip), vehicle: saline
[8] = dose: 0.78 mg/kg/injection, schedule: Q01DX009 (ip), vehicle: saline
[9] = dose: 1.56 mg/kg/injection, schedule: Q01DX009 (ip), vehicle: saline
[10] = dose: 3.12 mg/kg/injection, schedule: Q01DX009 (ip), vehicle: saline
[11] = dose: 6.25 mg/kg/injection, schedule: Q01DX009 (ip), vehicle: saline
[12] = dose: 12.5 mg/kg/injection, schedule: Q01DX009 (ip), vehicle: saline
[13] = dose: 25.0 mg/kg/injection, schedule: Q01DX009 (ip), vehicle: saline
[14] = dose: 400.0 mg/kg/injection, schedule: Q01DX009 (ip), vehicle: saline with Tween-80
[15] = dose: 2.0 mg/kg/injection, schedule: Q01DX009 (ip), vehicle: saline

Measured: T/C

C/C=C(\C)c1cc(=O)c2c(C)cc3c(c2o1)C(=O)c1c(O)c(C2CC(C)(N(C)C)C(OC(C)=O)C(C)O2)cc(C2CC(N(C)C)C(O)C(C)O2)c1C3=O (stereo not given)
inactive: dose: 0.15 mg/kg/injection, schedule: Q01DX009 (ip), vehicle: suspension in saline 101 % of control | dose: 0.31 mg/kg/injection, schedule: Q01DX009 (ip), vehicle: suspension in saline 103 % of control | dose: 0.62 mg/kg/injection, schedule: Q01DX009 (ip), vehicle: suspension in saline 97 % of control | dose: 1.25 mg/kg/injection, schedule: Q01DX009 (ip), vehicle: suspension in saline 107 % of control | dose: 2.5 mg/kg/injection, schedule: Q01DX009 (ip), vehicle: suspension in saline 111 % of control | dose: 5.0 mg/kg/injection, schedule: Q01DX009 (ip), vehicle: suspension in saline 106 % of control

CN(C)c1nc(N(C)C)nc(N(C)C)n1
inactive: [1] 101 % of control | [2] 114 % of control | [3] 109 % of control | [4] 111 % of control

CCC1=C2C(=O)c3ccccc3C2=C(C)S(=O)(=O)O1
inactive: dose: 3.12 mg/kg/injection, schedule: Q01DX009 (ip), vehicle: saline with Tween-80 104 % of control | [5] 99 % of control | [6] 97 % of control | [1] 107 % of control

CC1=CC(=Nc2ccc(N(CCCl)CCCl)cc2)C=C(C)C1=O
inactive: [6] 109 % of control | [1] 116 % of control

OCCN1CCN(CC/C=C2/c3ccccc3Sc3ccc(C(F)(F)F)cc32)CC1
inactive: dose: 0.19 mg/kg/injection, schedule: Q01DX009 (ip), vehicle: saline 114 % of control | [7] 101 % of control | [8] 102 % of control | [9] 98 % of control | [10] 98 % of control | [11] 108 % of control

O=C(O)CCCCCCCC(=O)O
inactive: dose: 12.5 mg/kg/injection, schedule: Q01DX009 (ip), vehicle: distilled water + Tween-80 100 % of control | dose: 25.0 mg/kg/injection, schedule: Q01DX009 (ip), vehicle: distilled water + Tween-80 99 % of control | dose: 50.0 mg/kg/injection, schedule: Q01DX009 (ip), vehicle: distilled water + Tween-80 100 % of control | dose: 100.0 mg/kg/injection, schedule: Q01DX009 (ip), vehicle: distilled water + Tween-80 98 % of control

O=[N+]([O-])c1c(O)c(CNCCCO)cc(CNCCCO)c1O
inactive: [11] 100 % of control | [12] 113 % of control | [13] 102 % of control

CCCCCC[Se][Se]CCCCCC
inactive: dose: 1.56 mg/kg/injection, schedule: Q01DX009 (ip), vehicle: Klucel (hydroxypropylcellulose) (HPC) 97 % of control | dose: 3.12 mg/kg/injection, schedule: Q01DX009 (ip), vehicle: Klucel (hydroxypropylcellulose) (HPC) 105 % of control | dose: 6.25 mg/kg/injection, schedule: Q01DX009 (ip), vehicle: Klucel (hydroxypropylcellulose) (HPC) 100 % of control | dose: 12.5 mg/kg/injection, schedule: Q01DX009 (ip), vehicle: Klucel (hydroxypropylcellulose) (HPC) 95 % of control

C[PH+](C)C.C[PH+](C)C.[Au]
inactive: dose: 0.62 mg/kg/injection, schedule: Q01DX009 (ip), vehicle: saline 97 % of control | dose: 1.25 mg/kg/injection, schedule: Q01DX009 (ip), vehicle: saline 102 % of control | dose: 2.5 mg/kg/injection, schedule: Q01DX009 (ip), vehicle: saline 105 % of control | dose: 10.0 mg/kg/injection, schedule: Q01DX009 (ip), vehicle: saline 109 % of control

CCN(CC)CCOCCO
inactive: dose: 12.0 mg/kg/injection, schedule: Q01DX009 (ip), vehicle: saline 96 % of control | [13] 99 % of control | dose: 50.0 mg/kg/injection, schedule: Q01DX009 (ip), vehicle: saline 99 % of control | dose: 100.0 mg/kg/injection, schedule: Q01DX009 (ip), vehicle: saline 101 % of control

C=COC(=O)C(Cc1ccccc1)NC(=O)OCc1ccccc1 (stereo not given)
inactive: [1] 103 % of control | [2] 112 % of control | [3] 98 % of control | [4] 105 % of control | [14] 94 % of control

COc1ccc2nonc2c1
inactive: [5] 107 % of control and 112 % of control | [6] 102 % of control and 118 % of control | [1] 101 % of control and 107 % of control | [2] 106 % of control and 109 % of control

N[C@@H](Cc1ccc(N(CCCl)CCCl)cc1)C(=O)O
inactive: dose: 0.5 mg/kg/injection, schedule: Q01DX009 (ip), vehicle: saline 102 % of control | dose: 1.0 mg/kg/injection, schedule: Q01DX009 (ip), vehicle: saline 95 % of control | [15] 99 % of control

CN(C)CCNc1ccc([N+](=O)[O-])c2sc3ccccc3c(=O)c12
inactive: [10] 96 % of control | [11] 108 % of control | [12] 115 % of control | [13] 119 % of control

CC(=O)OCC1(C)NC(=O)c2ccccc2O1 (stereo not given)
inactive: [6] 114 % of control | [1] 96 % of control | [2] 100 % of control | [3] 104 % of control | [4] 114 % of control | [14] 100 % of control

O=NN(CCCl)C(=O)NC1OC(CO)C(O)C(O)C1O (stereo not given)
inactive: [15] 121 % of control

COc1cc2c3c(cccc3c1)C(=O)N(CCN(C)C)C2=O
inactive: dose: 5.0 mg/kg/injection, schedule: Q01DX009 (ip), vehicle: saline with Tween-80 101 % of control | dose: 10.0 mg/kg/injection, schedule: Q01DX009 (ip), vehicle: saline with Tween-80 110 % of control | dose: 20.0 mg/kg/injection, schedule: Q01DX009 (ip), vehicle: saline with Tween-80 122 % of control | dose: 40.0 mg/kg/injection, schedule: Q01DX009 (ip), vehicle: saline with Tween-80 101 % of control | dose: 80.0 mg/kg/injection, schedule: Q01DX009 (ip), vehicle: saline with Tween-80 119 % of control

CC(C)NC(=O)N(CCCCBr)N=O
inactive: dose: 12.0 mg/kg/injection, schedule: Q01DX009 (ip), vehicle: Klucel (hydroxypropylcellulose) (HPC) 114 % of control | dose: 25.0 mg/kg/injection, schedule: Q01DX009 (ip), vehicle: Klucel (hydroxypropylcellulose) (HPC) 98 % of control | dose: 50.0 mg/kg/injection, schedule: Q01DX009 (ip), vehicle: Klucel (hydroxypropylcellulose) (HPC) 116 % of control

O=CC(O)C(O)C(O)C(O)C(=O)O.[NH-]C1CCCCC1[NH-].[Pt+2] (stereo not given)
inactive: dose: 0.2 mg/kg/injection, schedule: Q01DX009 (ip), vehicle: saline 93 % of control | [7] 94 % of control | [8] 93 % of control | [9] 106 % of control

c1cc(-c2cc3ccc(C4=NCCN4)cc3[nH]2)ccc1C1=NCCN1
inactive: dose: 3.12 mg/kg/injection, schedule: Q01DX009 (ip), vehicle: suspension in saline 100 % of control | dose: 6.25 mg/kg/injection, schedule: Q01DX009 (ip), vehicle: suspension in saline 120 % of control | dose: 12.5 mg/kg/injection, schedule: Q01DX009 (ip), vehicle: suspension in saline 115 % of control | dose: 25.0 mg/kg/injection, schedule: Q01DX009 (ip), vehicle: suspension in saline 111 % of control

Cc1noc(N)c1N
inactive: dose: 12.5 mg/kg/injection, schedule: Q01DX009 (ip), vehicle: water 101 % of control | dose: 25.0 mg/kg/injection, schedule: Q01DX009 (ip), vehicle: water 95 % of control | dose: 50.0 mg/kg/injection, schedule: Q01DX009 (ip), vehicle: water 102 % of control | dose: 100.0 mg/kg/injection, schedule: Q01DX009 (ip), vehicle: water 92 % of control | dose: 200.0 mg/kg/injection, schedule: Q01DX009 (ip), vehicle: water 98 % of control | dose: 400.0 mg/kg/injection, schedule: Q01DX009 (ip), vehicle: water 106 % of control

CC(O)CCC(=O)c1ccoc1 (stereo not given)
inactive: dose: 0.62 mg/kg/injection, schedule: Q03HX027 (ip), vehicle: saline 105 % of control | dose: 1.25 mg/kg/injection, schedule: Q03HX027 (ip), vehicle: saline 97 % of control | dose: 2.5 mg/kg/injection, schedule: Q03HX027 (ip), vehicle: saline 103 % of control | dose: 5.0 mg/kg/injection, schedule: Q03HX027 (ip), vehicle: saline 94 % of control
